In test [1] the target is T1, ALR2 (Bos taurus, UniProt P16116).
T1 construct: from tissue; host or cells: calf eye lenses
As to the kind of experiment: ALR2 enzyme inhibition assay (enzyme extracted from calf lenses). Format: biochemical, bovine. How it is done: Compounds 3a-o were tested against ALR2 to evaluate their inhibitory potential against aldose reductase whereas selectivity was determined via performing ALR1 inhibition assay. For the enzyme inhibition assay, ALR2 and ALR1 were extracted from bovine sources (ALR2 from eyes and ALR1 from kidneys). Moreover, inhibitions studies were also carried out on the expressed ALR2 (human AKR1B1) and inhibition data for ALR2- bovine source and expressed enzyme was compared and analyzed. The protocols for enzyme extraction and expression in the bacterial system are included in the section of “Supporting information”. […] For the purpose of comparison and validation of enzyme inhibition data, these compounds were tested against human AKR1B1 (hAKR1B1) expressed in E. coli BL21 (DE3).
For the determination of enzyme activity of ALR1 and ALR2, 100 µL of reaction mixture was composed of 20 µL of buffer (100 mM sodium phosphate, pH 6.2), 30 µL of enzyme extract, 20 µL of substrate (10 mM), 20 µL of cofactor (0.1 mM of NADPH) and 10 µL of test compound (1 mM)[6],[21]. The reaction mixture without cofactor was incubated at 32°C for 10 min, then the enzymatic reaction was initiated with the addition of NADPH and monitored for 5 minutes. Similar protocols were followed for ALR1 and ALR2, however the substrate was different for each enzyme, with sodium-D-glucoronate and DL-glyceraldehyde used as the substrates for the ALR1 and ALR2 assays, respectively. […] In addition, similar protocols were adopted for human AKR1B1 that was expressed in E. coli BL21 (DE3), though the determined protein concentration was 12 µg/mL for the expressed enzyme. Detailed protocols for the preparation of ALR1, ALR2 and expressed human AKR1B1 can be found in the supporting information.
The newly synthesized N-substitute thiosemicarbazones (3a-o) were dissolved in 100% DMSO and diluted with deionized water, keeping the DMSO concentration equal to 0.1% in the assay.
The extraction of ALR2 was carried out from calf lenses via adopting method described in
in (Hayman and Kinoshita 1965) with little modification. The lenses were obtained from slaughterhouse immediately after calf’s slaughtering and stored at -20^◦C until further use. These lense (150-170g) were subjected to homogenization with about three times volume of cold distilled water and then centrifugation was carried out for the homogenate at 10,000 x g for 14 minutes for removal of insoluble lipids particles. Precipitates were discarded and supernatant layer was subjected to 40% saturation of ammonium sulphate and again centrifugation was performed with same parameters for 14 minutes and again precipitates were discarded. […] In the last step, the supernatant was subjected to 75% of saturation with ammonium sulphate to obtain ALR2. Now, the precipitates were collected instead supernatant because precipitated protein was the expected desired ALR2. The precipitated enzyme (ALR2) was redissolved in 50mM solution of sodium chloride and dialyzed for 24 hours against 50mM solution (3.5L) of NaCl. The volume was recorded before and after dialysis, then dialyzed material was treated with liquid nitrogen. The extracted ALR2 was stored in 1mL Eppendorf tube in deep freezer at -80 ^◦C till further enzymatic studies.

A short description of test [2]: DPPH radical scavenging activity. To be noted: 100 µM compound, methanolic DPPH 0.025 mg/mL, 517 nm. As to the method:
DPPH (2,2-diphenyl-1-picrylhydrazyl) was used to explore the free radical quenching ability of 3a-o so as to provide a gauge of their antioxidant potential. The experiment was conducted according to a previously reported protocol with slight modifications. Percent free radical scavenging activities (% FRSA) of 3a-o were determined by spectrophotometric analysis at 517 nm using a homogenous mixture of methanolic DPPH (0.025 mg/mL) and a 100 µM solution of the tested compound, with ascorbic acid used as a positive control (Fig. 3).
(In general: DPPH is a stable violet radical that fades when it is reduced.)

The text below walks through data of PMC8986850, “Development and exploration of novel substituted thiosemicarbazones as inhibitors of aldose reductase via in vitro analysis and computational study” (Scientific Reports, 2022).

Usually IC50 stands for the point on the concentration scale where inhibition reaches its midpoint. The low end stands for greater potency, the high end for weaker potency.

`CC(C)(C)c1cc(C=NNC(=S)Nc2ccccc2F)c(O)c(C(C)(C)C)c1` [Compound 3m, 2-(3,5-di-tert-butyl-2-hydroxybenzylidene)-N-(2-fluorophenyl)hydrazine carbothioamide]: the inhibition at 100 µM in test [1] (bovine lens ALR2, 100 µM inhibitor, read-out: I (%, 100 µM) (ALR2) (converted)) was 85.1%. In test [1] (bovine lens ALR2, substrate DL-glyceraldehyde, mean ± SEM of three measurements), this compound returned an IC50 of 1.18 ± 0.0034 µM. Moreover, in test [2], the “% FRSA (percent free radical scavenging activity)” value is 75.95%.
